Here are results for one molecule from PMC5218480 (PLoS ONE, 2017).

The experiment concerns MV-4-11 cells. Kind of experiment: Gene expression microarray analysis (Affymetrix PrimeView) and GSEA. As to conditions: MV-4-11 cells, 48 hours. Also on record: RFU PODN (11730768_x_at) / Fold change /veh PODN (11730768_x_at) / RFU LINC00158 (11744669_a_at) / Fold change /veh LINC00158 (11744669_a_at) / RFU DUSP10 (11751237_a_at) / Fold change /veh DUSP10 (11751237_a_at) / RFU ID3 (11757404_x_at) / Fold change /veh ID3 (11757404_x_at) / RFU PLEKHG5 (11737974_s_at) / Fold change /veh PLEKHG5 (11737974_s_at) / RFU LRRC4B (11730491_at) / Fold change /veh LRRC4B (11730491_at) / RFU GIMAP4 (11747438_a_at) / Fold change /veh GIMAP4 (11747438_a_at) / RFU KRT8 (11758183_x_at) / Fold change /veh KRT8 (11758183_x_at) / RFU CNN1 (11734310_a_at) / Fold change /veh CNN1 (11734310_a_at) / RFU VPS37D (11726825_at) / Fold change /veh VPS37D (11726825_at) / RFU C10orf10 (11716522_x_at) / Fold change /veh C10orf10 (11716522_x_at) / RFU KIR2DL2 /// KIR2DL4 /// KIR2DL5A /// KIR2DL5B /// KIR2DS1 /// KIR2DS2 /// KIR2DS3 /// KIR2DS4 /// KIR3DL3 /// KIR3DL3 /// KIR3DS1 (11738374_at) / Fold change /veh KIR2DL2 /// KIR2DL4 /// KIR2DL5A /// KIR2DL5B /// KIR2DS1 /// KIR2DS2 /// KIR2DS3 /// KIR2DS4 /// KIR3DL3 /// KIR3DL3 /// KIR3DS1 (11738374_at) / RFU C1QL1 (11718748_at) / Fold change /veh C1QL1 (11718748_at) / RFU TMPRSS4 (11747572_a_at) / Fold change /veh TMPRSS4 (11747572_a_at) / RFU HAMP (11756126_x_at) / Fold change /veh HAMP (11756126_x_at) / RFU RNFT2 (11725882_a_at) / Fold change /veh RNFT2 (11725882_a_at) / RFU NR4A2 (11747474_a_at) / Fold change /veh NR4A2 (11747474_a_at) / RFU ABCC12 (11746883_a_at) / Fold change /veh ABCC12 (11746883_a_at) / RFU TMEM136 (11760407_x_at) / Fold change /veh TMEM136 (11760407_x_at) / RFU CLDN22 /// WWC2 (11732394_at) / Fold change /veh CLDN22 /// WWC2 (11732394_at) / RFU HLA-DPB1 (11760878_x_at) / Fold change /veh HLA-DPB1 (11760878_x_at) / RFU SPINT1 (11716480_a_at) / Fold change /veh SPINT1 (11716480_a_at) / RFU GAP43 (11754022_s_at) / Fold change /veh GAP43 (11754022_s_at) / RFU A4GNT (11735810_at) / Fold change /veh A4GNT (11735810_at) / RFU PRB3 (11715151_x_at) / Fold change /veh PRB3 (11715151_x_at) / RFU TUBB4B (11761932_at) / Fold change /veh TUBB4B (11761932_at) / RFU CAPN14 (11732068_a_at) / Fold change /veh CAPN14 (11732068_a_at) / RFU TMCC2 (11721928_a_at) / Fold change /veh TMCC2 (11721928_a_at) / RFU IRGQ (11745062_a_at) / Fold change /veh IRGQ (11745062_a_at) / RFU FAM174B (11720279_a_at) / Fold change /veh FAM174B (11720279_a_at) / RFU TMPRSS4 (11748680_a_at) / Fold change /veh TMPRSS4 (11748680_a_at) / RFU FAM212B (11763350_a_at) / Fold change /veh FAM212B (11763350_a_at) / RFU PLEKHG5 (11743358_a_at) / Fold change /veh PLEKHG5 (11743358_a_at) / RFU ZSCAN30 (11745921_a_at) / Fold change /veh ZSCAN30 (11745921_a_at) / RFU CMKLR1 (11741424_a_at) / Fold change /veh CMKLR1 (11741424_a_at) / RFU LOC101060620 /// MAPK8IP1 (11723275_at) / Fold change /veh LOC101060620 /// MAPK8IP1 (11723275_at) / RFU SPTSSB (11747773_x_at) / Fold change /veh SPTSSB (11747773_x_at) / RFU PRSS12 (11739890_at) / Fold change /veh PRSS12 (11739890_at) / RFU BIN1 (11741810_x_at) / Fold change /veh BIN1 (11741810_x_at) / RFU WNT11 (11732464_a_at) / Fold change /veh WNT11 (11732464_a_at) / RFU C10orf10 (11716521_a_at) / Fold change /veh C10orf10 (11716521_a_at) / RFU C5orf56 (11738089_at) / Fold change /veh C5orf56 (11738089_at) / RFU CYB561 (11721691_x_at) / Fold change /veh CYB561 (11721691_x_at) / RFU ANKRD19P (11752326_a_at) / Fold change /veh ANKRD19P (11752326_a_at) / RFU OR2T12 /// OR2T33 /// OR2T8 (11738714_s_at) / Fold change /veh OR2T12 /// OR2T33 /// OR2T8 (11738714_s_at) / RFU VCAN (11748164_a_at) / Fold change /veh VCAN (11748164_a_at) / RFU JSRP1 (11732532_at) / Fold change /veh JSRP1 (11732532_at) / RFU KRTAP10-11 (11738290_x_at) / Fold change /veh KRTAP10-11 (11738290_x_at) / RFU MYO3A (11730013_a_at) / Fold change /veh MYO3A (11730013_a_at) / RFU EBF3 (11725865_a_at) / Fold change /veh EBF3 (11725865_a_at) / RFU CAMK2N1 (11719241_x_at) / Fold change /veh CAMK2N1 (11719241_x_at) / RFU C5orf56 (11738088_a_at) / Fold change /veh C5orf56 (11738088_a_at) / RFU OLFML3 (11715873_a_at) / Fold change /veh OLFML3 (11715873_a_at) / RFU LOC100653217 /// NTM (11731650_a_at) / Fold change /veh LOC100653217 /// NTM (11731650_a_at) / RFU MAPK11 (11762145_a_at) / Fold change /veh MAPK11 (11762145_a_at) / RFU FIZ1 (11724087_x_at) / Fold change /veh FIZ1 (11724087_x_at) / RFU OASL (11726364_x_at) / Fold change /veh OASL (11726364_x_at) / RFU SOX15 (11748057_x_at) / Fold change /veh SOX15 (11748057_x_at) / RFU CD79A (11719716_a_at) / Fold change /veh CD79A (11719716_a_at) / RFU HIST1H1D (11736915_at) / Fold change /veh HIST1H1D (11736915_at) / RFU CASKIN2 (11723855_a_at) / Fold change /veh CASKIN2 (11723855_a_at) / RFU LOC730098 (11760151_x_at) / Fold change /veh LOC730098 (11760151_x_at) / RFU OR4N2 (11742367_at) / Fold change /veh OR4N2 (11742367_at) / RFU PRRT2 (11749266_a_at) / Fold change /veh PRRT2 (11749266_a_at) / RFU SNX32 (11753110_a_at) / Fold change /veh SNX32 (11753110_a_at) / RFU CDHR5 (11726645_a_at) / Fold change /veh CDHR5 (11726645_a_at) / RFU RCAN1 (11760418_a_at) / Fold change /veh RCAN1 (11760418_a_at) / RFU FAM167A (11723789_a_at) / Fold change /veh FAM167A (11723789_a_at) / RFU FAM26E (11764081_at) / Fold change /veh FAM26E (11764081_at) / RFU ISYNA1 (11749810_s_at) / Fold change /veh ISYNA1 (11749810_s_at) / RFU ACY1 (11761880_at) / Fold change /veh ACY1 (11761880_at) / RFU 11764098_at / Fold change /veh 11764098_at / RFU SAMD14 (11745864_x_at) / Fold change /veh SAMD14 (11745864_x_at) / RFU NPB (11741838_a_at) / Fold change /veh NPB (11741838_a_at) / RFU TMPRSS6 (11731388_a_at) / Fold change /veh TMPRSS6 (11731388_a_at) / RFU KRTAP10-2 (11738614_at) / Fold change /veh KRTAP10-2 (11738614_at) / RFU ARHGAP8 /// PRR5-ARHGAP8 (11727945_x_at) / Fold change /veh ARHGAP8 /// PRR5-ARHGAP8 (11727945_x_at) / RFU KRTAP5-7 /// NADSYN1 (11734609_at) / Fold change /veh KRTAP5-7 /// NADSYN1 (11734609_at) / RFU RASL12 (11751679_a_at) / Fold change /veh RASL12 (11751679_a_at) / RFU CDKN2B (11736163_a_at) / Fold change /veh CDKN2B (11736163_a_at) / RFU PRF1 (11729649_at) / Fold change /veh PRF1 (11729649_at) / RFU, ZNF638 /// ZNF638-IT1 / Fold change vs veh, ZNF638 /// ZNF638-IT1 / RFU, PANK3 / Fold change vs veh, PANK3 / RFU, SH3YL1 / Fold change vs veh, SH3YL1 / RFU, ZEB2 / Fold change vs veh, ZEB2 / RFU, NRIP1 / Fold change vs veh, NRIP1 / RFU, PTTG1IP / Fold change vs veh, PTTG1IP / RFU, CAPN2 / Fold change vs veh, CAPN2 / RFU, MED14 / Fold change vs veh, MED14 / RFU, SNORA58 / Fold change vs veh, SNORA58 / RFU, C1orf63 / Fold change vs veh, C1orf63 / RFU, LRRFIP1 / Fold change vs veh, LRRFIP1 / RFU, NDUFAF7 / Fold change vs veh, NDUFAF7 / RFU, SLC12A2 / Fold change vs veh, SLC12A2 / RFU, IBTK / Fold change vs veh, IBTK / RFU, ESF1 / Fold change vs veh, ESF1 / Fold change vs veh, TMEM50B / RFU, TAOK1 / Fold change vs veh, TAOK1 / RFU, ACBD3 / Fold change vs veh, ACBD3 / RFU, TMA16 / Fold change vs veh, TMA16 / RFU, RWDD3 / Fold change vs veh, RWDD3 / RFU, BCAT1 / Fold change vs veh, BCAT1 / RFU, EDEM3 / Fold change vs veh, EDEM3 / RFU, TMEM33 / Fold change vs veh, TMEM33 / RFU, WDR75 / Fold change vs veh, WDR75 / RFU, AHCTF1 / Fold change vs veh, AHCTF1 / RFU, TFRC / Fold change vs veh, TFRC / RFU, ZDHHC17 / Fold change vs veh, ZDHHC17 / RFU, NOM1 / Fold change vs veh, NOM1 / RFU, ARL8B / Fold change vs veh, ARL8B / RFU, ZBTB11 / Fold change vs veh, ZBTB11 / RFU, TAMM41 / Fold change vs veh, TAMM41 / RFU, KIAA1704 /// LOC100996395 / Fold change vs veh, KIAA1704 /// LOC100996395 / RFU, ING1 / Fold change vs veh, ING1 / RFU, TRMT61B / Fold change vs veh, TRMT61B / RFU, FUBP3 / Fold change vs veh, FUBP3 / RFU, TP53 / Fold change vs veh, TP53 / RFU, TNKS2 / Fold change vs veh, TNKS2 / RFU, ZFP14 / Fold change vs veh, ZFP14 / RFU, ACTR2 / Fold change vs veh, ACTR2 / RFU, PPP3R1 / Fold change vs veh, PPP3R1 / RFU, PIK3R1 / Fold change vs veh, PIK3R1 / RFU, HNRNPA1 / Fold change vs veh, HNRNPA1 / RFU, RNF170 / Fold change vs veh, RNF170 / RFU, ZNF28 / Fold change vs veh, ZNF28 / RFU, RNGTT / Fold change vs veh, RNGTT / RFU, OGT / Fold change vs veh, OGT / RFU, BRD1 / Fold change vs veh, BRD1 / RFU, MARS / Fold change vs veh, MARS / RFU, ZNF655 / Fold change vs veh, ZNF655 / RFU, FAHD1 / Fold change vs veh, FAHD1 / RFU, BDP1 / Fold change vs veh, BDP1 / RFU, LRRCC1 / Fold change vs veh, LRRCC1 / RFU, ARID1A / Fold change vs veh, ARID1A / RFU, ZNF146 / Fold change vs veh, ZNF146 / RFU, ZNF330 / Fold change vs veh, ZNF330 / RFU, GPN3 / Fold change vs veh, GPN3 / RFU, C9orf123 / Fold change vs veh, C9orf123 / RFU, N4BP2L2 / Fold change vs veh, N4BP2L2 / RFU, ARFIP1 / Fold change vs veh, ARFIP1 / RFU, FAM179B / Fold change vs veh, FAM179B / RFU, BCL10 / Fold change vs veh, BCL10 / RFU, UHRF1BP1L / Fold change vs veh, UHRF1BP1L / RFU, BET1 / Fold change vs veh, BET1 / RFU, CNOT2 / Fold change vs veh, CNOT2 / RFU, ZNF268 / Fold change vs veh, ZNF268 / Fold change vs veh, ZNF507 / RFU, DGCR2 / Fold change vs veh, DGCR2 / RFU, WDSUB1 / Fold change vs veh, WDSUB1 / Fold change vs veh, HSP90B1 /// MIR3652 / RFU, ADSS / Fold change vs veh, ADSS / RFU, GK / Fold change vs veh, GK / RFU, ZNF148 / Fold change vs veh, ZNF148 / RFU, TAF9 / Fold change vs veh, TAF9 / RFU, SLC1A5 / Fold change vs veh, SLC1A5 / RFU, SLMO2 / Fold change vs veh, SLMO2 / RFU, ABCC4 / Fold change vs veh, ABCC4 / RFU, LOC101060439 /// RAP1B / Fold change vs veh, LOC101060439 /// RAP1B / RFU, RFX7 / Fold change vs veh, RFX7 / RFU, GTPBP10 / Fold change vs veh, GTPBP10 / RFU, CNEP1R1 / Fold change vs veh, CNEP1R1 / RFU, BIVM-ERCC5 /// ERCC5 / Fold change vs veh, BIVM-ERCC5 /// ERCC5 / RFU, ILF3 / Fold change vs veh, ILF3 / RFU 11762660_at / Fold change /veh 11762660_at / RFU VCAN (11757783_s_at) / Fold change /veh VCAN (11757783_s_at) / RFU DDX43 (11728927_at) / Fold change /veh DDX43 (11728927_at) / RFU KRT8 (11758188_x_at) / Fold change /veh KRT8 (11758188_x_at) / RFU NKD1 (11759106_at) / Fold change /veh NKD1 (11759106_at) / RFU SRD5A1 (11742802_a_at) / Fold change /veh SRD5A1 (11742802_a_at) / RFU TPSAB1 /// TPSB2 (11721975_s_at) / Fold change /veh TPSAB1 /// TPSB2 (11721975_s_at) / RFU GSTM3 (11746129_a_at) / Fold change /veh GSTM3 (11746129_a_at) / RFU IL23R (11737362_x_at) / Fold change /veh IL23R (11737362_x_at) / RFU TMEM51 (11727254_a_at) / Fold change /veh TMEM51 (11727254_a_at) / RFU PIWIL2 (11732686_x_at) / Fold change /veh PIWIL2 (11732686_x_at) / RFU ORM1 (11744905_x_at) / Fold change /veh ORM1 (11744905_x_at) / RFU CCDC152 (11743942_at) / Fold change /veh CCDC152 (11743942_at) / RFU ECM1 (11717891_a_at) / Fold change /veh ECM1 (11717891_a_at) / RFU IL23R (11748794_a_at) / Fold change /veh IL23R (11748794_a_at) / RFU TNFAIP8L3 (11732012_x_at) / Fold change /veh TNFAIP8L3 (11732012_x_at) / RFU MBOAT4 (11741988_at) / Fold change /veh MBOAT4 (11741988_at) / RFU 11764193_at / Fold change /veh 11764193_at / RFU TMEM53 (11763286_at) / Fold change /veh TMEM53 (11763286_at) / RFU MAGEB2 (11727129_at) / Fold change /veh MAGEB2 (11727129_at) / RFU TMEM200A (11744735_a_at) / Fold change /veh TMEM200A (11744735_a_at) / RFU CCDC152 (11751479_a_at) / Fold change /veh CCDC152 (11751479_a_at) / RFU FAM211A (11726209_a_at) / Fold change /veh FAM211A (11726209_a_at) / RFU RGS16 (11746705_a_at) / Fold change /veh RGS16 (11746705_a_at) / RFU VCAN (11755009_s_at) / Fold change /veh VCAN (11755009_s_at) / RFU RHOB (11743442_s_at) / Fold change /veh RHOB (11743442_s_at) / RFU RGS16 (11720943_a_at) / Fold change /veh RGS16 (11720943_a_at) / RFU RGS16 (11720944_at) / Fold change /veh RGS16 (11720944_at) / RFU, VPS4B / Fold change vs veh, VPS4B / RFU, CREB1 / Fold change vs veh, CREB1 / RFU, DNAJC13 / Fold change vs veh, DNAJC13 / RFU, GNAQ / Fold change vs veh, GNAQ / RFU, CDK5R1 / Fold change vs veh, CDK5R1 / RFU, ZRANB3 / Fold change vs veh, ZRANB3 / RFU, CUL4A / Fold change vs veh, CUL4A / RFU, CCNY / Fold change vs veh, CCNY / RFU, UFL1 / Fold change vs veh, UFL1 / RFU, COG3 / Fold change vs veh, COG3 / RFU, DIAPH2 / Fold change vs veh, DIAPH2 / RFU, SKA2 / Fold change vs veh, SKA2 / RFU, AFF3 / Fold change vs veh, AFF3 / RFU, LMF1 / Fold change vs veh, LMF1 / RFU, IPO11 / Fold change vs veh, IPO11 / RFU, DFFB / Fold change vs veh, DFFB / RFU, FOXP1 / Fold change vs veh, FOXP1 / RFU, CARD8 / Fold change vs veh, CARD8 / RFU, STRN3 / Fold change vs veh, STRN3 / RFU, ADK / Fold change vs veh, ADK / RFU, RASSF2 / Fold change vs veh, RASSF2 / RFU, WIPF1 / Fold change vs veh, WIPF1 / RFU, LARP1B / Fold change vs veh, LARP1B / RFU, RASA1 / Fold change vs veh, RASA1 / RFU, RB1 / Fold change vs veh, RB1 / RFU, PPFIA1 / Fold change vs veh, PPFIA1 / RFU, MAT2A / Fold change vs veh, MAT2A / RFU, CCT5 / Fold change vs veh, CCT5 / RFU, WDR92 / Fold change vs veh, WDR92 / RFU, CUX1 / Fold change vs veh, CUX1 / RFU, TTC7A / Fold change vs veh, TTC7A / RFU, TMEM135 / Fold change vs veh, TMEM135 / RFU, DEPTOR / Fold change vs veh, DEPTOR / RFU, CPM / Fold change vs veh, CPM / RFU, DNAJB6 / Fold change vs veh, DNAJB6 / RFU, CACNA2D3 / Fold change vs veh, CACNA2D3 / RFU, DTX4 / Fold change vs veh, DTX4 / RFU, TFCP2 / Fold change vs veh, TFCP2 / RFU, GMCL1 /// GMCL1P1 / Fold change vs veh, GMCL1 /// GMCL1P1 / RFU, AEBP2 / Fold change vs veh, AEBP2 / RFU, SNHG1 /// SNORD22 /// SNORD25 /// SNORD26 /// SNORD27 /// SNORD28 /// SNORD29 /// SNORD31 / Fold change vs veh, SNHG1 /// SNORD22 /// SNORD25 /// SNORD26 /// SNORD27 /// SNORD28 /// SNORD29 /// SNORD31 / Fold change (Aza/veh), C12orf56 (ProbeSet 11735607_a_at) / Fold change (ACY-1035/veh), C12orf56 (ProbeSet 11735607_a_at) / Fold change (Aza/veh), FGFR1OP (ProbeSet 11751329_s_at) / Fold change (ACY-1035/veh), FGFR1OP (ProbeSet 11751329_s_at) / Fold change (Aza/veh), VPS36 (ProbeSet 11739960_a_at) / Fold change (ACY-1035/veh), VPS36 (ProbeSet 11739960_a_at) / RFU SYPL1 (11715823_x_at) / Fold change /veh SYPL1 (11715823_x_at) / RFU IGFBP7 (11715501_s_at) / Fold change /veh IGFBP7 (11715501_s_at) / RFU REEP3 (11722064_at) / Fold change /veh REEP3 (11722064_at) / RFU IGLL1 (11728026_x_at) / Fold change /veh IGLL1 (11728026_x_at): dose or concentration left out as unconfirmed. The experiment is classed as cell-based, human.

In the case of `Nc1ccc(-c2cccs2)cc1NC(=O)c1ccc2c(c1)cc(C1CC1)n2CCN1CCOCC1` [ACY-1035], the “Fold change /veh A4GNT (11735810_at)” value came out at 1.01.
